From patent publication US20220089575A1, “FARNESOID X RECEPTOR AGONISTS AND USES THEREOF” (Metacrine, Inc., priority 2017, published 2022)

Molecular target: T1, hFXR (Homo sapiens, UniProt Q96RI1)
T1 construct: expressed in transfected cells; host or cells: CV-1 cells
T1 sequence (Q96RI1 1-486): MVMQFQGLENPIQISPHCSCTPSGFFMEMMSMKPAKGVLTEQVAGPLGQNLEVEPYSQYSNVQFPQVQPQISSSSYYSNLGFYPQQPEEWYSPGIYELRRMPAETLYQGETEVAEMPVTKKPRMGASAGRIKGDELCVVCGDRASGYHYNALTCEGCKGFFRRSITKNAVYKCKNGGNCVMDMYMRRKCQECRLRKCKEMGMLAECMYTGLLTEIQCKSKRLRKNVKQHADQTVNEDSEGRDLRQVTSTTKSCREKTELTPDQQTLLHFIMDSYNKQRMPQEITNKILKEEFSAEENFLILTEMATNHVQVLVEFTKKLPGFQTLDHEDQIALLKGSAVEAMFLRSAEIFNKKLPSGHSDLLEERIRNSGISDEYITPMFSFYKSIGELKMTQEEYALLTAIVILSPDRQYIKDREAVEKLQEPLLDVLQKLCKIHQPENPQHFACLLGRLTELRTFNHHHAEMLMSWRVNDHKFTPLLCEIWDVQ
T1 sequence (P19793 1-462 partner): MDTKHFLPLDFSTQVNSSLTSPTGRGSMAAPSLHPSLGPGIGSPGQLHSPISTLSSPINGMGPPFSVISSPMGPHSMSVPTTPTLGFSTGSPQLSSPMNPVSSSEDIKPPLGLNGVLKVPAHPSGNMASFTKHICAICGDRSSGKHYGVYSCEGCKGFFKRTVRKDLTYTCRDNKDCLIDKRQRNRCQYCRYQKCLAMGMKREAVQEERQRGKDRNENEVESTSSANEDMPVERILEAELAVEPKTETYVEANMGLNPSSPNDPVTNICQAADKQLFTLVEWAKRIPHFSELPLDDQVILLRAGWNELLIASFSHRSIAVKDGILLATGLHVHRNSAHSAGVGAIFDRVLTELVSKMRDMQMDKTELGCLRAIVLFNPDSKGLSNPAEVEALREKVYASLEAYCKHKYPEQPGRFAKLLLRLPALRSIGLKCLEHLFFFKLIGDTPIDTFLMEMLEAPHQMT
Experiment: In Vitro FXR Assay (TK): TK-ECRE-luc reporter in transfected CV-1 cells
Format: cell-based
Conditions: 18 hrs, luminescence, maximum efficacy of <25% of the Fexarmine control classified as '+'
In short: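 Transiently transfected monkey CV-1 cells (hFXR, hRXR, TK-ECRE-luciferase, YFP control plasmid), held in stripped-serum DMEM, received compound dilutions from DMSO for 18 h at 37 °C. Activity was taken from luminescence of the cell lysates.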

| EC50 [nM] | SMILES |
| --- | --- |
| ≤ 250 | COc1ccc(C23CCC(CN(c4cccc(-c5cnn(C6CC6)c5)c4)C(=O)[C@H]4CC[C@H](OC(=O)N5CC(O)C5)CC4)(CC2)CC3)cc1C [Compound 7.12, 4-((3-(1-Cyclopropyl-1H-pyrazol-4-yl)phenyl)((4-(4-methoxy-3-methylphenyl)bicyclo[2.2.2]octan-1-yl)methyl)carbamoyl)cyclohexyl trans-3-hydroxyazetidine-1-carboxylate] |
| ≤ 250 | CN(C)c1ccc([C@H]2CC[C@H](CN(c3cccc(-c4cnn(C5CC5)c4)c3)C(=O)[C@H]3CC[C@H](OC(=O)N4CC(O)C4)CC3)CC2)cn1 [Compound 7.13, trans-4-((3-(1-Cyclopropyl-1H-pyrazol-4-yl)phenyl)((trans-4-(6-(dimethylamino)pyridin-3-yl)cyclohexyl)methyl)carbamoyl) cyclohexyl 3-hydroxyazetidine-1-carboxylate] |
| ≤ 250 | COc1ccc([C@H]2CC[C@H](CN(c3cccc(-c4cnn(C(C)C)c4)c3)C(=O)[C@H]3CC[C@H](OC(=O)N4CC(O)C4)CC3)CC2)cc1C [Compound 7.14, trans-4-((3-(1-Isopropyl-1H-pyrazol-4-yl)phenyl)((trans-4-(4-methoxy-3-methylphenyl)cyclohexyl)methyl)carbamoyl)cyclohexyl 3-hydroxyazetidine-1-carboxylate] |
| ≤ 250 | COc1ccc([C@H]2CC[C@H](CN(c3cccc(-c4cnn(C(C)C)c4)c3)C(=O)[C@H]3CC[C@H](OC(=O)N4CC(O)C4)CC3)CC2)nc1C [Compound 7.15, trans-4-((3-(1-Isopropyl-1H-pyrazol-4-yl)phenyl)((trans-4-(5-methoxy-6-methylpyridin-2-yl)cyclohexyl)methyl)carbamoyl)cyclohexyl 3-hydroxyazetidine-1-carboxylate] |
| ≤ 250 | COc1ccc([C@H]2CC[C@H](CN(c3cc(-c4cnn(C(C)C)c4)ccn3)C(=O)[C@H]3CC[C@H](OC(=O)N4CC(O)C4)CC3)CC2)cc1C [Compound 7.16, trans-4-((4-(1-Isopropyl-1H-pyrazol-4-yl)pyridin-2-yl)((trans-4-(4-methoxy-3-methylphenyl)cyclohexyl)methyl)carbamoyl)cyclohexyl 3-hydroxyazetidine-1-carboxylate] |
| ≤ 250 | COC(=O)CNC(=O)O[C@H]1CC[C@H](C(=O)N(C[C@H]2CC[C@H](c3ccc(OC)c(C)c3)CC2)c2cccc(-c3cnn(C4CC4)c3)c2)CC1 [Compound 7.17, Methyl 2-((((trans-4-((3-(1-cyclopropyl-1H-pyrazol-4-yl)phenyl)((trans-4-(4-methoxy-3-methylphenyl)cyclohexyl)methyl)carbamoyl)cyclohexyl)oxy)carbonyl)amino)acetate] |
| ≤ 250 | COc1ccc([C@H]2CC[C@H](CN(c3cccc(-c4cnn(C5CC5)c4)c3)C(=O)[C@H]3CC[C@H](OC(=O)NCC(=O)O)CC3)CC2)cc1C [Compound 7.18, 2-((((trans-4-((3-(1-Cyclopropyl-1H-pyrazol-4-yl)phenyl)((trans-4-(4-methoxy-3-methylphenyl)cyclohexyl)methyl)carbamoyl)cyclohexyl)oxy)carbonyl)amino)acetic acid] |
| ≤ 250 | COc1ccc([C@H]2CC[C@H](CN(c3cccc(-c4cnn(C5CC5)c4)c3)C(=O)[C@H]3CC[C@H](OC(=O)N4CC(O)C4)CC3)CC2)cc1C#N [Compound 7.19, trans-4-(((trans-4-(3-Cyano-4-methoxyphenyl)cyclohexyl)methyl)(3-(1-cyclopropyl-1H-pyrazol-4-yl)phenyl)carbamoyl)cyclohexyl 3-hydroxyazetidine-1-carboxylate] |
| ≤ 250 | COc1ccc([C@H]2CC[C@H](CN(c3cccc(-c4cnn(C(C)C)c4)c3)C(=O)[C@H]3CC[C@H](OC(=O)N4CC(O)C4)CC3)CC2)cc1C#N [Compound 7.20, trans-4-(((trans-4-(3-Cyano-4-methoxyphenyl)cyclohexyl)methyl)(3-(1-isopropyl-1H-pyrazol-4-yl)phenyl)carbamoyl)cyclohexyl 3-hydroxyazetidine-1-carboxylate] |
| ≤ 250 | COc1ccc([C@H]2CC[C@H](CN(c3cc(-c4cnn(C5CC5)c4)ccn3)C(=O)[C@H]3CC[C@H](OC(=O)N4CC(O)C4)CC3)CC2)cc1C#N [Compound 7.21, trans-4-(((trans-4-(3-Cyano-4-methoxyphenyl)cyclohexyl)methyl)(4-(1-cyclopropyl-1H-pyrazol-4-yl)pyridin-2-yl)carbamoyl)cyclohexyl 3-hydroxyazetidine-1-carboxylate] |
| ≤ 250 | COc1ccc([C@H]2CC[C@H](CN(c3cc(-c4cnn(C(C)C)c4)ccn3)C(=O)[C@H]3CC[C@H](OC(=O)N4CC(O)C4)CC3)CC2)cc1C#N [Compound 7.22, trans-4-(((trans-4-(3-Cyano-4-methoxyphenyl)cyclohexyl)methyl)(4-(1-isopropyl-1H-pyrazol-4-yl)pyridin-2-yl)carbamoyl)cyclohexyl 3-hydroxyazetidine-1-carboxylate] |
| ≤ 250 | COc1ncc([C@H]2CC[C@H](CN(c3cccc(-c4cnn(C5CC5)c4)c3)C(=O)[C@H]3CC[C@H](OC(=O)N4CC(O)C4)CC3)CC2)cc1Cl [Compound 7.23, trans-4-(((trans-4-(5-Chloro-6-methoxypyridin-3-yl)cyclohexyl)methyl)(3-(1-cyclopropyl-1H-pyrazol-4-yl)phenyl)carbamoyl) cyclohexyl 3-hydroxyazetidine-1-carboxylate] |
| ≤ 250 | COc1ccc([C@H]2CC[C@H](CN(c3cc(-c4cnn(C5CC5)c4)ccn3)C(=O)[C@H]3CC[C@H](OC(=O)N4CC(O)C4)CC3)CC2)nc1C [Compound 7.24, trans-4-((4-(1-Cyclopropyl-1H-pyrazol-4-yl)pyridin-2-yl)((trans-4-(5-methoxy-6-methylpyridin-2-yl)cyclohexyl)methyl)carbamoyl)cyclohexyl 3-hydroxyazetidine-1-carboxylate] |
| ≤ 250 | COc1ncc([C@H]2CC[C@H](CN(c3cccc(-c4cnn(C5CC5)c4)c3)C(=O)[C@H]3CC[C@H](OC(=O)N4CC(O)C4)CC3)CC2)cc1C [Compound 7.25, trans-4-((3-(1-Cyclopropyl-1H-pyrazol-4-yl)phenyl)((trans-4-(6-methoxy-5-methylpyridin-3-yl)cyclohexyl)methyl)carbamoyl)cyclohexyl 3-hydroxyazetidine-1-carboxylate] |
| ≤ 250 | COCC1CN(C(=O)O[C@H]2CC[C@H](C(=O)N(C[C@H]3CC[C@H](c4ccc(OC)c(C)c4)CC3)c3cccc(-c4cnn(C5CC5)c4)c3)CC2)C1 [Compound 7.26, trans-4-((3-(1-Cyclopropyl-1H-pyrazol-4-yl)phenyl)((trans-4-(4-methoxy-3-methylphenyl)cyclohexyl)methyl)carbamoyl)cyclohexyl 3-(methoxymethyl)azetidine-1-carboxylate] |
| ≤ 250 | COc1ccc([C@H]2CC[C@H](CN(c3cccc(-c4cnn(C5CC5)c4)c3)C(=O)[C@H]3CC[C@H](OC(=O)N4CC(N(C)C)C4)CC3)CC2)cc1C [Compound 7.27, trans-4-((3-(1-Cyclopropyl-1H-pyrazol-4-yl)phenyl)((trans-4-(4-methoxy-3-methylphenyl)cyclohexyl)methyl)carbamoyl)cyclohexyl 3-(dimethylamino)azetidine-1-carboxylate] |
| ≤ 250 | COc1ccc([C@H]2CC[C@H](CN(c3cccc(-c4cnn(C5CC5)c4)c3)C(=O)[C@H]3CC[C@H](OC(=O)N4CC(CO)C4)CC3)CC2)cc1C [Compound 7.28, trans-4-((3-(1-Cyclopropyl-1H-pyrazol-4-yl)phenyl)((trans-4-(4-methoxy-3-methylphenyl)cyclohexyl)methyl)carbamoyl)cyclohexyl 3-(hydroxymethyl)azetidine-1-carboxylate] |
| ≤ 250 | COc1ccc([C@H]2CC[C@H](CN(c3cccc(-c4cnn(C5CC5)c4)c3)C(=O)[C@H]3CC[C@H](OC(=O)N4CC[S+]([O-])CC4)CC3)CC2)cc1C [Compound 7.29, trans-4-((3-(1-Cyclopropyl-1H-pyrazol-4-yl)phenyl)((trans-4-(4-methoxy-3-methylphenyl)cyclohexyl)methyl)carbamoyl)cyclohexyl thiomorpholine-4-carboxylate 1-oxide] |
| ≤ 250 | COc1ccc([C@H]2CC[C@H](CN(c3cccc(-c4cnn(C5CC5)c4)c3)C(=O)[C@H]3CC[C@H](OC(=O)N4CCS(=O)(=O)CC4)CC3)CC2)cc1C [Compound 7.30, trans-4-((3-(1-Cyclopropyl-1H-pyrazol-4-yl)phenyl)((trans-4-(4-methoxy-3-methylphenyl)cyclohexyl)methyl)carbamoyl)cyclohexyl thiomorpholine-4-carboxylate1,1-dioxide] |
